# In ChEMBL document CHEMBL1777746, “1,5-Substituted nipecotic amides: selective PDE8 inhibitors displaying diastereomer-dependent microsomal stability” (Bioorg Med Chem Lett, 2011):
# Experiments:
# [1] = Half life in human liver microsomes; assay type: ADME, Microsome
# [2] = Intrinsic clearance in human liver microsomes; assay type: ADME, Microsome
# [3] = Dissociation constant, pKa of the compound; assay type: physicochemical
# [4] = Lipophilicity, log D of the compound; assay type: physicochemical; settings: octanol/water
# [5] = Oral bioavailability in rat; assay type: ADME, organism-based; settings: in vivo
# [6] = Clearance in rat; assay type: ADME, organism-based; settings: in vivo
# [7] = Volume of distribution at steady state in rat; assay type: ADME, organism-based; settings: in vivo, read-out: Vdss
# [8] = biological target: High affinity cAMP-specific and IBMX-insensitive 3',5'-cyclic phosphodiesterase 8B (Homo sapiens, UniProt O95263); experiment: Inhibition of PDE8B
# Sequence of High affinity cAMP-specific and IBMX-insensitive 3',5'-cyclic phosphodiesterase 8B (O95263 whole entry): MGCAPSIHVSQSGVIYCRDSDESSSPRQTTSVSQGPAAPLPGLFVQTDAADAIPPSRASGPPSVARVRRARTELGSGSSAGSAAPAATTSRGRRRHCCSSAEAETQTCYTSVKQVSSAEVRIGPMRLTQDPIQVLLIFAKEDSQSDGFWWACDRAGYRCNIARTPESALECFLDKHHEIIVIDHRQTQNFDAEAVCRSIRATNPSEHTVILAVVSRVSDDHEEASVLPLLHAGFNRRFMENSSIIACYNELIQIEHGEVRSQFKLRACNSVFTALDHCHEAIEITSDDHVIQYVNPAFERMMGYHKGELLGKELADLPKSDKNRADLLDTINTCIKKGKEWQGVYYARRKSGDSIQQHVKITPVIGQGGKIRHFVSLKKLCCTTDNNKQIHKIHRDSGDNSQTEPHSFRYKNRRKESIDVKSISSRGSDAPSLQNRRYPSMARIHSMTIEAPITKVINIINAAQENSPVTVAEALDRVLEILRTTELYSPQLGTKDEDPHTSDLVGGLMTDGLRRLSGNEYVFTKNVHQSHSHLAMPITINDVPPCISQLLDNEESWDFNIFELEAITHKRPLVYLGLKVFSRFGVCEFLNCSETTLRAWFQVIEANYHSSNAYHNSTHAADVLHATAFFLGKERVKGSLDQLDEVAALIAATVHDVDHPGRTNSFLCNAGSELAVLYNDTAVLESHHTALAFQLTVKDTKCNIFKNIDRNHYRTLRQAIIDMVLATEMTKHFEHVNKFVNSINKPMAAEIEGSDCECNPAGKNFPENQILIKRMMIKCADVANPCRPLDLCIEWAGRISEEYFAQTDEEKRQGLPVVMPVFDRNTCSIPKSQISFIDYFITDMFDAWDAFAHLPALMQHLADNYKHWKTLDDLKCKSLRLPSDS
half-life [1],microsomal CLint [2],Structure (SMILES),other results
3 min,304 µL/min/mg,CC[C@H]1C[C@H](C(=O)NCc2cccc(C)n2)CN(Cc2nc(-c3ccccc3)oc2C)C1,
< 3 min,290 µL/min/mg,Cc1cccc(CNC(=O)[C@H]2C[C@H](c3nnc(C)o3)CN(Cc3nc(-c4ccccc4)oc3C)C2)n1,
,105 µL/min/mg,Cc1cccc(CNC(=O)[C@@H]2C[C@@H](c3nc(C)no3)CN(Cc3nc(-c4ccccc4)oc3C)C2)n1,
4.2 min,233 µL/min/mg,COC[C@@H]1C[C@@H](C(=O)NC[C@H]2CCCO2)CN(Cc2nc(-c3ccccc3)oc2C)C1,
< 3 min,290 µL/min/mg,Cc1cccc(CNC(=O)[C@H]2C[C@H](c3nc(C)no3)CN(Cc3nc(-c4ccccc4)oc3C)C2)n1,
4.09 min,239 µL/min/mg,COC[C@@H]1C[C@@H](C(=O)NCC2CCOCC2)CN(Cc2nc(-c3ccccc3)oc2C)C1,
,,COCC1CC(C(=O)NC[C@H]2CCCO2)CN(Cc2nc(N3CCOCC3)oc2C)C1 (stereo not given in full),pKa [3]: 7.2; logD [4]: 1; logD ([4]; read-out: logD): 0.8
24.1 min,40.6 µL/min/mg,CC[C@H]1C[C@@H](C(=O)NCC2CCOCC2)CN(Cc2nc(N3CCOCC3)oc2C)C1,
24.2 min,40.3 µL/min/mg,COC[C@H]1C[C@@H](C(=O)NC[C@H]2CCCO2)CN(Cc2nc(-c3ccccc3)oc2C)C1,
14.1 min,69.1 µL/min/mg,Cc1oc(-c2ccccc2)nc1CN1CCC[C@@H](C(=O)NC[C@@H]2CCCO2)C1,
23.7 min,41 µL/min/mg,COC[C@@H]1C[C@@H](C(=O)NC[C@H]2CCCO2)CN(Cc2nc(N3CCOCC3)oc2C)C1,
7.71 min,118 µL/min/mg,CC[C@H]1C[C@@H](C(=O)NCc2cccc(C)n2)CN(Cc2nc(-c3ccccc3)oc2C)C1,
6.88 min,142 µL/min/mg,CC[C@@H]1C[C@@H](C(=O)NCC2CCOCC2)CN(Cc2nc(N3CCOCC3)oc2C)C1,
,,CC[C@@H]1C[C@@H](C(=O)NCc2cccc(C)n2)CN(Cc2nc(-c3ccccc3)oc2C)C1,bioavailability [5]: 7%; clearance [6]: 98 mL/min/kg; Vd [7]: 1.4 L/kg
4.32 min,226 µL/min/mg,CC[C@H]1C[C@@H](C(=O)NCC2CCOCC2)CN(Cc2nc(-c3ccccc3)oc2C)C1,
20.5 min,49 µL/min/mg,Cc1oc(-c2ccccc2)nc1CN1CCC[C@@H](C(=O)NCc2cccc(N)n2)C1,
< 3 min,304 µL/min/mg,COC[C@H]1C[C@H](C(=O)NCc2cccc(C)n2)CN(Cc2nc(-c3ccccc3)oc2C)C1,
30.8 min,31.7 µL/min/mg,COC[C@@H]1C[C@@H](C(=O)NCC2CCOCC2)CN(Cc2nc(N3CCOCC3)oc2C)C1,
11.6 min,84 µL/min/mg,Cc1oc(-c2ccccc2)nc1CN1CCC[C@@H](C(=O)NC[C@H]2CCCO2)C1,
5.76 min,158 µL/min/mg,Cc1cccc(CNC(=O)C2CCCN(Cc3nc(-c4ccccc4)oc3C)C2)n1 (stereo not given),
,> 300 µL/min/mg,Cc1oc(-c2ccccc2)nc1CN1C[C@H](C(=O)NCc2cccc(N)n2)C[C@@H](c2ccccc2)C1,

half-life [1],microsomal CLint [2],Structure (SMILES),other results
,,Cc1cccc(CNC(=O)[C@@H]2CCN(Cc3nc(-c4ccccc4)oc3C)C2)n1,IC50 [8]: > 10 µM
49.2 min,19.9 µL/min/mg,COC[C@H]1C[C@@H](C(=O)NCC2CCOCC2)CN(Cc2nc(-c3ccncn3)[nH]c2C)C1,
,190 µL/min/mg,CC[C@@H]1C[C@@H](C(=O)NC[C@H]2CCCO2)CN(Cc2nc(-c3ccncn3)[nH]c2C)C1,
5.68 min,182 µL/min/mg,Cc1noc([C@@H]2C[C@@H](C(=O)NC[C@@H]3CCCO3)CN(Cc3nc(-c4ccccc4)oc3C)C2)n1,
> 120 min,< 8 µL/min/mg,COC[C@H]1C[C@@H](C(=O)NC[C@H]2CCCO2)CN(Cc2nc(N3CCOCC3)oc2C)C1,
< 3 min,320 µL/min/mg,CC[C@@H]1C[C@@H](C(=O)NC[C@@H]2CCCO2)CN(Cc2nc(-c3ccccc3)oc2C)C1,
,290 µL/min/mg,Cc1cccc(CNC(=O)[C@@H]2C[C@@H](c3nnc(C)o3)CN(Cc3nc(-c4ccccc4)oc3C)C2)n1,
3.47 min,281 µL/min/mg,CC[C@@H]1C[C@@H](C(=O)NCc2cccc(N)n2)CN(Cc2nc(-c3ccccc3)oc2C)C1,
8.9 min,110 µL/min/mg,CC[C@@H]1C[C@@H](C(=O)NCc2cccc(N)n2)CN(Cc2nc(N3CCOCC3)oc2C)C1,
31.1 min,31.4 µL/min/mg,CC[C@H]1C[C@@H](C(=O)NCc2cccc(N)n2)CN(Cc2nc(N3CCOCC3)oc2C)C1,
50.7 min,19.3 µL/min/mg,COC[C@H]1C[C@@H](C(=O)NCC2CCOCC2)CN(Cc2nc(N3CCOCC3)oc2C)C1,
7.45 min,131 µL/min/mg,CC[C@@H]1C[C@@H](C(=O)NC[C@@H]2CCCO2)CN(Cc2nc(N3CCOCC3)oc2C)C1,
5 min,195 µL/min/mg,CC[C@@H]1C[C@@H](C(=O)NC[C@@H]2CCCO2)CN(Cc2[nH]c(-c3ccncn3)nc2C)C1,
9.34 min,105 µL/min/mg,Cc1oc(-c2ccccc2)nc1CN1CCCC(C(=O)NCC2CCOCC2)C1 (stereo not given),
8.15 min,120 µL/min/mg,CC[C@H]1C[C@@H](C(=O)NC[C@H]2CCCO2)CN(Cc2nc(-c3ccccc3)oc2C)C1,
,,Cc1cccc(CNC(=O)C2CN(Cc3nc(-c4ccccc4)oc3C)CCO2)n1 (stereo not given),IC50 [8]: > 10 µM
15.5 min,63 µL/min/mg,COC[C@@H]1C[C@@H](C(=O)NCC2CCOCC2)CN(Cc2[nH]c(-c3ccncn3)nc2C)C1,
9.17 min,99.5 µL/min/mg,COC[C@H]1C[C@@H](C(=O)NCc2cccc(C)n2)CN(Cc2nc(-c3ccccc3)oc2C)C1,
51.7 min,18.9 µL/min/mg,CC[C@H]1C[C@@H](C(=O)NC[C@@H]2CCCO2)CN(Cc2nc(N3CCOCC3)oc2C)C1,
< 3 min,320 µL/min/mg,CC[C@@H]1C[C@@H](C(=O)NCC2CCOCC2)CN(Cc2nc(-c3ccccc3)oc2C)C1,
< 3 min,> 320 µL/min/mg,CC[C@@H]1C[C@@H](C(=O)NC[C@H]2CCCO2)CN(Cc2nc(-c3ccccc3)oc2C)C1,
